Measured values: publication PMC9081329, “Pharmacokinetics, Mass Balance, Excretion, and Tissue Distribution of Plasmalogen Precursor PPI-1011” (Frontiers in Cell and Developmental Biology, 2022)

Assay: Single dose tissue distribution study (QWBA, LSC of blood and plasma)
Type: in vivo, Sprague-Dawley rats
Method: Six male rats were administered a single oral dose of [^14C]PPI-1011 at 100 mg/kg (200 μCi/kg) and one rat was sacrificed at each of the following time points after the administration of the dose: 8, 12, 18, 24, 48, or 168 h. Terminal blood was collected by cardiac puncture directly into tubes with K2EDTA, an aliquot was stored at 4°C until LSC was performed for radioactivity, while the remaining blood was processed to plasma and stored at −20°C until LSC. Following blood collection, the carcasses were frozen in a cold bath with hexanes and dry ice for at least 8 min and then dried and stored at −70°C for at least 5 h. The carcasses were transferred to a −20°C freezer for at least 12 h before embedding.
QWBA was used to determine radioactivity concentrations in the caecum (contents and mucosa), large intestine (contents and mucosa), small intestine (contents and mucosa), stomach (contents and mucosa), brain, choroid plexus, spinal cord, bone, skin, adrenal gland, pineal body, pituitary gland, thyroid gland, liver, kidney (cortex, medulla and whole kidney), urinary bladder (contents and wall), brown fat, white fat, eye (lens, uveal tract and whole eye), epididymis, prostate gland, testis, ovary, uterus, lung, exorbital lachrymal gland, Harderian gland, pancreas, salivary gland, skeletal muscle, myocardium, cardiac blood, bone marrow, lymph node, spleen, and thymus. As well, LSC was used to determine the total radioactivity in the whole blood and plasma.
The whole-body cryosectioning technique described by ([Ullberg, 1977]) was the basis for embedding and cryosectioning the rats assigned to this study. Each frozen carcass was shaved, and then the limbs and tail were removed prior to embedding. Chilled (4°C) 3% CMC (low viscosity) was utilized to provide a firm support of reinforced ice around each rat and for a secure attachment to the microtome stage. Upon thorough freezing of the embedding medium surrounding each rat, the frozen CMC block was removed from the freezing bath and four 3/8 inch holes were drilled into the block. One cryosection quality control standard (CQCS) was prepared with a known amount of radioactivity and at least 1 ml aliquots were added to each of the four drilled holes. CQCS data were utilized to evaluate the overall performance of the QWBA assay.
Each frozen rat was sagittally trimmed (50–100 μm) at −20°C until exposure of a few target tissues employing a Leica Cryomacrocut heavy-duty microtome (Leica Microsystems Inc.,). Disposable stainless steel Feather type H45L knives (Feather Safety Razor Co., Ltd.) were utilized for trimming and sectioning each frozen rat. Several thinner sections (50 μm) were discarded prior to obtaining multiple 50 μm sections at various cryosectioning levels for QWBA analysis. Upon the collection of at least 60 target tissues in multiple cryosectioning levels, the cryosections were kept in the Cryomacrocut cryochamber for a minimum of 18 h for dehydration depending upon the number of cryosections within the cryochamber. After dehydration was complete, the cryosections were transferred to ambient temperature for processing. Mounted whole-body cryosections and a set of 15 standards were sandwiched between a standard phosphor screen and an exposure cassette. All cryosections were exposed to the phosphor screen for 4-days in a cabinet protected with lead prior to scanning using a Typhoon PhosphorImager (Cytiva). MCID™ Analysis software (InterFocus Ltd.) was utilized to generate a calibration curve of the STD nominal concentrations (nCi/g) versus PhosphorImager response (counts/μm^2 minus background) by weighted (1/x) linear regression analysis ([Potchoiba et al., 1995]; [Potchoiba et al., 1998]). The linear regression curve was then utilized to determine the concentration (nCi/g) of total radioactivity in whole-body tissues and blood. Radioactivity concentrations were expressed as μg Eq/g based on the specific activity of the compound in the final dose formulations. […]

[1] = 24 h post single oral 100 mg/kg
[2] = 48 h post single oral 100 mg/kg

Compound: CC/C=C\C/C=C\C/C=C\C/C=C\C/C=C\C/C=C\CCC(=O)O[C@H](CO[14CH2]CCCCCCCCCCCCCCC)COC(=O)CCCCC1CCSS1 (stereo partly shown) [[^14C]PPI-1011]
- Radioactivity concentration, Choroid Plexus [1]: 9.85 μg equivalents/g
- Radioactivity concentration, Colliculus [1]: 2.06 μg equivalents/g
- Radioactivity concentration, Diaphragm [1]: 37.4 μg equivalents/g
- Radioactivity concentration, Epididymis [1]: 40.4 μg equivalents/g
- Radioactivity concentration, Esophagus [1]: 9.46 μg equivalents/g
- Radioactivity concentration, Exorbital Lacrimal Gland [1]: 9.66 μg equivalents/g
- Radioactivity concentration, Gastric Mucosa [1]: 48.7 μg equivalents/g
- Radioactivity concentration, Harderian Gland [1]: 10.5 μg equivalents/g
- Radioactivity concentration, Intra-Orbital Lacrimal Gland [1]: 7.56 μg equivalents/g
- Radioactivity concentration, Kidney [1]: 24.7 μg equivalents/g
- Radioactivity concentration, Large Intestines [1]: 180 μg equivalents/g
- Radioactivity concentration, Liver [1]: 73.4 μg equivalents/g
- Radioactivity concentration, Lung [1]: 30.2 μg equivalents/g
- Radioactivity concentration, Lymph Node [1]: 17.4 μg equivalents/g
- Radioactivity concentration, Medulla Oblongata [1]: 1.98 μg equivalents/g
- Radioactivity concentration, Muscle [1]: 7.57 μg equivalents/g
- Radioactivity concentration, Myocardium [1]: 31.0 μg equivalents/g
- Radioactivity concentration, Nasal Turbinates [1]: 4.81 μg equivalents/g
- Radioactivity concentration, Ocular - Uveal Tract [1]: 4.27 μg equivalents/g
- Radioactivity concentration, Ocular - Whole Eye [1]: 1.14 μg equivalents/g
- Radioactivity concentration, Olfactory Bulb [1]: 2.07 μg equivalents/g
- Radioactivity concentration, Pancreas [1]: 24.8 μg equivalents/g
- Radioactivity concentration, Parotid Gland [1]: 20.5 μg equivalents/g
- Radioactivity concentration, Pineal Gland [1]: 10.8 μg equivalents/g
- Radioactivity concentration, Pituitary Gland [1]: 16.7 μg equivalents/g
- Radioactivity concentration, Preputial Gland [1]: 112 μg equivalents/g
- Radioactivity concentration, Prostate [1]: 56.7 μg equivalents/g
- Radioactivity concentration, Renal Cortex [1]: 26.8 μg equivalents/g
- Radioactivity concentration, Renal Medulla [1]: 25.8 μg equivalents/g
- Radioactivity concentration, Salivary Gland [1]: 21.3 μg equivalents/g
- Radioactivity concentration, Seminal Vesicles [1]: 5.38 μg equivalents/g
- Radioactivity concentration, Skin - Non-Pigmented [1]: 9.26 μg equivalents/g
- Radioactivity concentration, Small Intestines [1]: 247 μg equivalents/g
- Radioactivity concentration, Spinal Cord [1]: 1.75 μg equivalents/g
- Radioactivity concentration, Spleen [1]: 46.3 μg equivalents/g
- Radioactivity concentration, Stomach [1]: 10.8 μg equivalents/g
- Radioactivity concentration, Testis [1]: 4.31 μg equivalents/g
- Radioactivity concentration, Thalamus [1]: 1.71 μg equivalents/g
- Radioactivity concentration, Thymus [1]: 9.79 μg equivalents/g
- Radioactivity concentration, Thyroid [1]: 27.7 μg equivalents/g
- Radioactivity concentration, Whole Brain [1]: 1.95 μg equivalents/g
- Radioactivity concentration, Adipose - Brown [2]: 132 μg equivalents/g
- Radioactivity concentration, Adipose - Brown (Vessel Wall) [2]: 98.6 μg equivalents/g
- Radioactivity concentration, Adipose - Subcutaneous [2]: 82.1 μg equivalents/g
- Radioactivity concentration, Adipose - Visceral [2]: 111 μg equivalents/g
- Radioactivity concentration, Adrenal Gland [2]: 201 μg equivalents/g
- Radioactivity concentration, Bladder Wall [2]: 10.7 μg equivalents/g
- Radioactivity concentration, Blood - QWBA [2]: 4.19 μg equivalents/g
- Radioactivity concentration, Bone Marrow [2]: 15.7 μg equivalents/g
- Radioactivity concentration, Bone Surface [2]: 0.508 μg equivalents/g
- Radioactivity concentration, Cecum [2]: 34.3 μg equivalents/g
- Radioactivity concentration, Cerebellum [2]: 2.60 μg equivalents/g
- Radioactivity concentration, Cerebrum [2]: 2.23 μg equivalents/g
- Radioactivity concentration, Choroid Plexus [2]: 14.4 μg equivalents/g
- Radioactivity concentration, Colliculus [2]: 3.30 μg equivalents/g
- Radioactivity concentration, Diaphragm [2]: 23.0 μg equivalents/g
- Radioactivity concentration, Epididymis [2]: 6.81 μg equivalents/g
- Radioactivity concentration, Esophagus [2]: 10.8 μg equivalents/g
- Radioactivity concentration, Exorbital Lacrimal Gland [2]: 6.13 μg equivalents/g
- Radioactivity concentration, Gastric Mucosa [2]: 37.5 μg equivalents/g
- Radioactivity concentration, Harderian Gland [2]: 11.1 μg equivalents/g
- Radioactivity concentration, Intra-Orbital Lacrimal Gland [2]: 6.64 μg equivalents/g
- Radioactivity concentration, Kidney [2]: 24.6 μg equivalents/g
- Radioactivity concentration, Large Intestines [2]: 19.1 μg equivalents/g
- Radioactivity concentration, Liver [2]: 40.0 μg equivalents/g
- Radioactivity concentration, Lung [2]: 22.9 μg equivalents/g
- Radioactivity concentration, Lymph Node [2]: 20.0 μg equivalents/g
- Radioactivity concentration, Medulla Oblongata [2]: 2.45 μg equivalents/g
- Radioactivity concentration, Muscle [2]: 8.42 μg equivalents/g
- Radioactivity concentration, Myocardium [2]: 26.6 μg equivalents/g
- Radioactivity concentration, Nasal Turbinates [2]: 5.03 μg equivalents/g
- Radioactivity concentration, Ocular - Uveal Tract [2]: 4.78 μg equivalents/g
- Radioactivity concentration, Ocular - Whole Eye [2]: 1.30 μg equivalents/g
- Radioactivity concentration, Olfactory Bulb [2]: 2.01 μg equivalents/g
- Radioactivity concentration, Pancreas [2]: 28.0 μg equivalents/g
- Radioactivity concentration, Parotid Gland [2]: 20.9 μg equivalents/g
- Radioactivity concentration, Pineal Gland [2]: 16.4 μg equivalents/g
- Radioactivity concentration, Pituitary Gland [2]: 19.2 μg equivalents/g
- Radioactivity concentration, Preputial Gland [2]: 76.5 μg equivalents/g
- Radioactivity concentration, Prostate [2]: 7.15 μg equivalents/g
- Radioactivity concentration, Renal Cortex [2]: 24.3 μg equivalents/g
- Radioactivity concentration, Renal Medulla [2]: 22.7 μg equivalents/g
- Radioactivity concentration, Salivary Gland [2]: 22.9 μg equivalents/g
- Radioactivity concentration, Seminal Vesicles [2]: 9.12 μg equivalents/g
- Radioactivity concentration, Skin - Non-Pigmented [2]: 13.4 μg equivalents/g
